Consider two compounds from paper PMC10487304, “Shaping the “hot” immunogenic tumor microenvironment by nanoparticles co‐delivering oncolytic peptide and TGF‐β1 siRNA for boosting checkpoint blockade therapy” (Bioengineering & Translational Medicine, 2022).

For data set [1] the following is noted: Balb/c mice, FITC fluorescence (485/535 nm) in blood samples. The method, then:
At indicated time points, the mice were euthanized and the blood was taken from the heart. Sodium heparin was added to the blood samples at a concentration of 15 IU/ml. The fluorescence intensity of FITC‐LTX‐315 in the serum was measured using Tecan Infinite F200 Fluorescence Microplate Reader (Tecan, Seestrasse, Männedorf, Switzerland) at an excitation and emission wavelength of 485 and 535 nm, respectively.

For data set [2] the following is noted: due to high serum protein binding ability; cited from earlier work. An excerpt:
Recently, several cationic antimicrobial peptides (CAPs), such as LTX‐315, have been extensively investigated as novel anticancer agents due to their ability to kill tumor cells and create a highly proinflammatory status of the TME, mainly via causing the destabilization of tumor cell plasma and mitochondrial membrane.[12] Subsequently, the CAPs trigger the immunogenic cell death (ICD) in tumor cells via Bax/Bak‐1 and caspase apoptotic pathways, which is along with the exposure or release of tumor antigens, danger‐associated molecular pattern (DAMP) molecules such as calreticulin, ATP and high ...

Where a SMILES comes first, the peptide text is derived from it. [ ]: non-standard residue; d: D form. The star is where a group is joined. FITC = O=C1OC2(c3ccc(O)cc3Oc3cc(O)ccc32)c2ccc(NC(=S)*)cc21; Dip = N[C@H](C(=O)O)C(c1ccccc1)c1ccccc1

On to `NCCCC[C@H](NC(=O)[C@@H](NC(=O)[C@H](Cc1c[nH]c2ccccc12)NC(=O)[C@H](CCCCN)NC(=O)[C@H](CCCCN)NC(=O)[C@H](Cc1c[nH]c2ccccc12)NC(=O)[C@H](Cc1c[nH]c2ccccc12)NC(=O)[C@H](CCCCN)NC(=O)[C@H](CCCCN)NC(=S)Nc1ccc2c(c1)C(=O)OC21c2ccc(O)cc2Oc2cc(O)ccc21)C(c1ccccc1)c1ccccc1)C(N)=O` [FITC-LTX] ({FITC}-KKWWKKW[Dip]K-NH2), for which the “elimination after i.v. injection” value in data set [1] is “eliminated within few minutes”.
With `NCCCC[C@H](NC(=O)[C@@H](NC(=O)[C@H](Cc1c[nH]c2ccccc12)NC(=O)[C@H](CCCCN)NC(=O)[C@H](CCCCN)NC(=O)[C@H](Cc1c[nH]c2ccccc12)NC(=O)[C@H](Cc1c[nH]c2ccccc12)NC(=O)[C@H](CCCCN)NC(=O)[C@@H](N)CCCCN)C(c1ccccc1)c1ccccc1)C(N)=O` [LTX-315] (H-KKWWKKW[Dip]K-NH2), the “fate upon systemic administration” value in data set [2] is “rapidly degraded into nontoxic metabolites”.
